According to paper PMC12040969, “Design, synthesis, in silico studies, and apoptotic antiproliferative activity of novel thiazole-2-acetamide derivatives as tubulin polymerization inhibitors” (Frontiers in Chemistry, 2025):
Where “and” joins values, the source holds several entries; their conditions need not be identical. Equal entries are not always repeated. Values belong to the compound of their own block, whether it stands above or below them.

Legend:
[1] = Cell viability assay (MTT), normal cells; format: cell-based; settings: human, MCF-10A normal mammary gland epithelial cells, four-day incubation
[2] = system: Caspase-3 in MDAMB-231 cancer cell line; experiment: Caspase-3 activation assay; format: cell-based, human; settings: MDAMB-231 cells; for Caspase-3 Fold change: relative to untreated control
Description: (§1) […]. Supplementary Appendix A provides more information.

[3] = system: Caspase-9 in MDAMB-231 cancer cell line; experiment: Caspase-9 activation assay; format: cell-based, human; settings: MDAMB-231 cells; for Caspase-9 Fold change: relative to untreated control
Procedure: […]. Compound 10o was the least efficient derivative as caspase-9 activators (0.90 ng/mL).
as §1

[4] = system: Bax in MDAMB-231 cancer cell line; experiment: Bax level assay; format: cell-based, human; settings: MDAMB-231 cells; for Bax Fold change: relative to untreated control
Description: as §1

[5] = system: Bcl-2 in MDAMB-231 cancer cell line; experiment: Bcl-2 level assay; format: cell-based, human; settings: MDAMB-231 cells; for Bcl-2 Fold reduction: relative to untreated control
Description: as §1

prostatic - PC-3 = experiment: Antiproliferative assay (MTT) PC-3; settings: for IC50: read-out: Antiproliferative activity IC50 ± SEM (µM) PC-3, PC-3, MTT
breast - MCF-7 = experiment: Antiproliferative assay (MTT) MCF-7; settings: for IC50: read-out: Antiproliferative activity IC50 ± SEM (µM) MCF-7, MCF-7, MTT
colon - HCT-116 = experiment: Antiproliferative assay (MTT) HCT-116; settings: for IC50: read-out: Antiproliferative activity IC50 ± SEM (µM) HCT-116, HCT-116, MTT
tubulin = experiment: Tubulin polymerization inhibition assay (Cytoskeleton kit);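 on all read-outs here: Cell-free tubulin polymerization read by fluorescent reporter enhancement over a 30 min reaction, with the compound-free kit control taken as 100% activity and inhibition relative to it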; settings: for Tub %inh / Tub. enzyme inhibition assay %inhibition: 30 min; for Tub %inh: YB-EGY run; for Tub K.Activity: EC = 120, YB-EGY run; for Tub. enzyme inhibition assay %inhibition: codes 522-537 run; for Tub. enzyme inhibition assay K. Activity: control = 120, codes 522-537 run; for IC50: read-out: Tubulin inhibition IC50 ± SEM, triplicate for each tested concentration
- MDAMB-231 = experiment: Antiproliferative assay (MTT) MDAMB-231
pancreatic - MDAMB-231 = experiment: Antiproliferative assay (MTT) MDAMB-231; settings: read-out: Antiproliferative activity IC50 ± SEM (µM) MDAMB-231; MDAMB-231, MTT
[6] = system: four human cancer cell lines (HCT-116, PC-3, MCF-7, MDAMB-231); experiment: Antiproliferative assay, mean of four cell lines (GI50); settings: for IC50: Homo sapiens, read-out: GI50 (average IC50)

SMILES: Cc1nc(SCC(=O)Nc2nc(-c3ccccc3)cs2)sc1C(=O)/C=C/c1ccccc1 [Compound 10a, (E)-2-((5-cinnamoyl-4-methylthiazol-2-yl)thio)-N-(4-phenylthiazol-2-yl)acetamide]
viability at 96 h, 50 µM [1]: 87%
Caspase-3 Conc [2]: 625 ± 5 pg/mL
Caspase-9 Conc [3]: 1.60 ng/mL and 1.60 ± 0.10 ng/mL
Bax Conc [4]: 305 pg/mL and 305 ± 8 pg/mL
Bcl-2 Conc [5]: 0.90 ng/mL
Higher efficacy than sorafenib, PC-3 (prostatic - PC-3; PC-3 prostate cancer cell line): 1.7 fold
IC50 (prostatic - PC-3): 7 ± 0.6 µM
IC50 (breast - MCF-7): 4 ± 0.2 µM
IC50 (colon - HCT-116): 8 ± 0.7 µM
Tub %inh (tubulin; conc 0.1 (unit not given)): 16.5%
Tub K.Activity (tubulin; conc 0.1 (unit not given)): 100.18
Tub %inh (tubulin; conc 1 (unit not given)): 39.4%
Tub K.Activity (tubulin; conc 1 (unit not given)): 72.71
Tub %inh (tubulin; conc 10 (unit not given)): 60.5%
Tub K.Activity (tubulin; conc 10 (unit not given)): 47.391
Tub %inh (tubulin; conc 50 (unit not given)): 78.9%
Tub K.Activity (tubulin; conc 50 (unit not given)): 25.374
Tub %inh (tubulin; conc 100 (unit not given)): 92.7%
Tub K.Activity (tubulin; conc 100 (unit not given)): 8.7594

SMILES: Cc1ccc(/C=C/C(=O)c2sc(SCC(=O)Nc3nccs3)nc2C)cc1 [Compound 13d, (E)-2-((4-methyl-5-(3-(p-tolyl)acryloyl)thiazol-2-yl)thio)-N-(thiazol-2-yl)acetamide]
viability at 96 h, 50 µM [1]: 90%
Caspase-3 Conc [2]: 690 ± 5 pg/mL
Caspase-3 Fold change [2]: 11 fold
Caspase-3 Fold change ([2]; listed as 13g): ~10 fold
Caspase-9 Conc [3]: 1.50 ng/mL and 1.50 ± 0.10 ng/mL
Caspase-9 Fold change [3]: 15 fold
Bax Conc [4]: 320 pg/mL and 320 ± 8 pg/mL
Bax Fold change [4]: 40 fold
Bcl-2 Conc [5]: 0.80 ng/mL
Bcl-2 Fold reduction [5]: 6 fold
Average of Relative viability of cells (%) (prostatic - PC-3; PC-3, 1.56 µM): 97.1%
Average of Relative viability of cells (%) (prostatic - PC-3; PC-3, 3.125 µM): 83.3%
Average of Relative viability of cells (%) (prostatic - PC-3; PC-3, 6.25 µM): 57.8%
Average of Relative viability of cells (%) (prostatic - PC-3; PC-3, 12.5 µM): 35.6%
Average of Relative viability of cells (%) (prostatic - PC-3; PC-3, 25 µM): 20.5%
Average of Relative viability of cells (%) (prostatic - PC-3; PC-3, 50 µM): 19.4%
Average of Relative viability of cells (%) (prostatic - PC-3; PC-3, 100 µM): 7.6%
IC50 (prostatic - PC-3): 9 ± 0.8 µM
Average of Relative viability of cells (%) (breast - MCF-7; MCF-7, 1.56 µM): 88.6%
Average of Relative viability of cells (%) (breast - MCF-7; MCF-7, 3.125 µM): 71.2%
Average of Relative viability of cells (%) (breast - MCF-7; MCF-7, 6.25 µM): 45.2%
Average of Relative viability of cells (%) (breast - MCF-7; MCF-7, 12.5 µM): 32.4%
Average of Relative viability of cells (%) (breast - MCF-7; MCF-7, 25 µM): 24.5%
Average of Relative viability of cells (%) (breast - MCF-7; MCF-7, 50 µM): 17.1%
Average of Relative viability of cells (%) (breast - MCF-7; MCF-7, 100 µM): 8.3%
IC50 (breast - MCF-7): 7 ± 0.4 µM
Average of Relative viability of cells (%) (colon - HCT-116; HCT-116, 1.56 µM): 90.6%
Average of Relative viability of cells (%) (colon - HCT-116; HCT-116, 3.125 µM): 69.8%
Average of Relative viability of cells (%) (colon - HCT-116; HCT-116, 6.25 µM): 63.9%
Average of Relative viability of cells (%) (colon - HCT-116; HCT-116, 12.5 µM): 32.7%
Average of Relative viability of cells (%) (colon - HCT-116; HCT-116, 25 µM): 26.5%
Average of Relative viability of cells (%) (colon - HCT-116; HCT-116, 50 µM): 17.4%
Average of Relative viability of cells (%) (colon - HCT-116; HCT-116, 100 µM): 9.2%
IC50 (colon - HCT-116): 9 ± 0.9 µM
Average of Relative viability of cells (%) (- MDAMB-231; MDAMB-231, 1.56 µM): 71.2%
Average of Relative viability of cells (%) (- MDAMB-231; MDAMB-231, 3.125 µM): 57.9%
Average of Relative viability of cells (%) (- MDAMB-231; MDAMB-231, 6.25 µM): 45.6%
Average of Relative viability of cells (%) (- MDAMB-231; MDAMB-231, 12.5 µM): 35.2%
Average of Relative viability of cells (%) (- MDAMB-231; MDAMB-231, 25 µM): 15.6%
Average of Relative viability of cells (%) (- MDAMB-231; MDAMB-231, 50 µM): 11.3%
Average of Relative viability of cells (%) (- MDAMB-231; MDAMB-231, 100 µM): 7.5%
IC50 (pancreatic - MDAMB-231): 5 ± 0.3 µM
IC50 [6]: 8 µM
Tub. enzyme inhibition assay %inhibition (tubulin; conc 0.01 (unit not given)): 6.76%
Tub. enzyme inhibition assay K. Activity (tubulin; conc 0.01 (unit not given)): 111.89
Tub. enzyme inhibition assay %inhibition (tubulin; conc 0.1 (unit not given)): 21%
Tub. enzyme inhibition assay K. Activity (tubulin; conc 0.1 (unit not given)): 94.779
Tub. enzyme inhibition assay %inhibition (tubulin; conc 1 (unit not given)): 47.4%
Tub. enzyme inhibition assay K. Activity (tubulin; conc 1 (unit not given)): 63.07
Tub. enzyme inhibition assay %inhibition (tubulin; conc 10 (unit not given)): 68.5%
Tub. enzyme inhibition assay K. Activity (tubulin; conc 10 (unit not given)): 37.815
Tub. enzyme inhibition assay %inhibition (tubulin; conc 100 (unit not given)): 87%
Tub. enzyme inhibition assay K. Activity (tubulin; conc 100 (unit not given)): 15.546
IC50 (tubulin): 3.68 ± 0.14 µM
Tub. (IC50) IC50±SD (tubulin; supplement raw data, lab codes): 1.53 ± 0.06 µg/mL

SMILES: CN[C@@H]1C[C@H]2O[C@@](C)([C@@H]1OC)n1c3ccccc3c3c4c(c5c6ccccc6n2c5c31)C(=O)NC4 [Staurosporine, reference compound]
Caspase-3 Conc [2]: 510 ± 4 pg/mL
Caspase-3 Fold change [2]: 8 fold
Caspase-9 Conc [3]: 1.30 ± 0.10 ng/mL
Caspase-9 Fold change [3]: 13 fold
Caspase-9 Conc ([3]; listed as staurosporine): 1.30 ng/mL
Bax Conc [4]: 280 ± 7 pg/mL
Bax Fold change [4]: 35 fold
Bax Conc ([4]; listed as staurosporine): 280 pg/mL
Bcl-2 Conc [5]: 1.10 ng/mL
Bcl-2 Fold reduction [5]: 5 fold

IC50 (prostatic - PC-3): 34 ± 2.1 µM
IC50 (breast - MCF-7): 28 ± 1.8 µM
IC50 (colon - HCT-116): 18 ± 1.4 µM
IC50 (pancreatic - MDAMB-231): 23 ± 1.7 µM
Reduced potency compared to doxorubicin (GI50) ([6]; GI50 ratio): at least 2.5 fold
Reduced potency compared to sorafenib (GI50) ([6]; GI50 ratio): ≥ 1.5 fold
IC50 [6]: 26 µM
IC50 (tubulin): 6.05 ± 0.18 µM
SMILES: Cc1nc(SCC(=O)Nc2nccs2)sc1C(=O)/C=C/c1ccc(F)cc1 [Compound 13c, (E)-2-((5-(3-(4-fluorophenyl)acryloyl)-4-methylthiazol-2-yl)thio)-N-(thiazol-2-yl)acetamide]
viability at 96 h, 50 µM [1]: 86%
Average of Relative viability of cells (%) (prostatic - PC-3; PC-3, 1.56 µM): 100%
Average of Relative viability of cells (%) (prostatic - PC-3; PC-3, 3.125 µM): 99.1%
Average of Relative viability of cells (%) (prostatic - PC-3; PC-3, 6.25 µM): 87.9%
Average of Relative viability of cells (%) (prostatic - PC-3; PC-3, 12.5 µM): 67.7%
Average of Relative viability of cells (%) (prostatic - PC-3; PC-3, 25 µM): 54.6%
Average of Relative viability of cells (%) (prostatic - PC-3; PC-3, 50 µM): 42.1%
Average of Relative viability of cells (%) (prostatic - PC-3; PC-3, 100 µM): 28.8%
Average of Relative viability of cells (%) (breast - MCF-7; MCF-7, 1.56 µM): 100%
Average of Relative viability of cells (%) (breast - MCF-7; MCF-7, 3.125 µM): 96.3%
Average of Relative viability of cells (%) (breast - MCF-7; MCF-7, 6.25 µM): 83.0%
Average of Relative viability of cells (%) (breast - MCF-7; MCF-7, 12.5 µM): 68.1%
Average of Relative viability of cells (%) (breast - MCF-7; MCF-7, 25 µM): 51.6%
Average of Relative viability of cells (%) (breast - MCF-7; MCF-7, 50 µM): 36.7%
Average of Relative viability of cells (%) (breast - MCF-7; MCF-7, 100 µM): 21.7%
Average of Relative viability of cells (%) (colon - HCT-116; HCT-116, 1.56 µM): 100%
Average of Relative viability of cells (%) (colon - HCT-116; HCT-116, 3.125 µM): 92.6%
Average of Relative viability of cells (%) (colon - HCT-116; HCT-116, 6.25 µM): 73.1%
Average of Relative viability of cells (%) (colon - HCT-116; HCT-116, 12.5 µM): 51.3%
Average of Relative viability of cells (%) (colon - HCT-116; HCT-116, 25 µM): 42.2%
Average of Relative viability of cells (%) (colon - HCT-116; HCT-116, 50 µM): 29.9%
Average of Relative viability of cells (%) (colon - HCT-116; HCT-116, 100 µM): 16.1%
Average of Relative viability of cells (%) (- MDAMB-231; MDAMB-231, 1.56 µM): 100%
Average of Relative viability of cells (%) (- MDAMB-231; MDAMB-231, 3.125 µM): 93.3%
Average of Relative viability of cells (%) (- MDAMB-231; MDAMB-231, 6.25 µM): 71.6%
Average of Relative viability of cells (%) (- MDAMB-231; MDAMB-231, 12.5 µM): 54.8%
Average of Relative viability of cells (%) (- MDAMB-231; MDAMB-231, 25 µM): 50.1%
Average of Relative viability of cells (%) (- MDAMB-231; MDAMB-231, 50 µM): 38.9%
Average of Relative viability of cells (%) (- MDAMB-231; MDAMB-231, 100 µM): 19.6%
Tub %inh (tubulin; conc 0.1 (unit not given)): 6.12%
Tub K.Activity (tubulin; conc 0.1 (unit not given)): 112.66
Tub %inh (tubulin; conc 1 (unit not given)): 27.4%
Tub K.Activity (tubulin; conc 1 (unit not given)): 87.115
Tub %inh (tubulin; conc 10 (unit not given)): 48.8%
Tub K.Activity (tubulin; conc 10 (unit not given)): 61.436
Tub %inh (tubulin; conc 50 (unit not given)): 71.2%
Tub K.Activity (tubulin; conc 50 (unit not given)): 34.549
Tub %inh (tubulin; conc 100 (unit not given)): 90.8%
Tub K.Activity (tubulin; conc 100 (unit not given)): 10.995
